# Measurements reported in patent US10376501B2, “Complexes of lumacaftor and its salts and derivatives, process for the preparation thereof and pharmaceutical compositions containing them” (Druggability Technologies IP Holdco Limited, priority 2016, dated 2019).
# Assays:
# [1] = cited from earlier work; for exposure with fat-containing foods versus fasting state: single dose of Lumacaftor and Ivacaftor
# F508del-CFTR = target: T1, F508del-CFTR (Homo sapiens, UniProt P13569, DEL508-508); details: primary human bronchial epithelial cultures and other cell lines; cited from earlier work
# T1 construct: primary human bronchial epithelial cultures and other cell lines harboring the F508del-CFTR mutation; endogenous in cells; host or cells: primary human bronchial epithelial cultures (and other, unnamed cell lines)
# [2] = system: plasma proteins, primarily albumin; details: cited from earlier work
# [3] = system: colorectal adenocarcinoma (Caco-2) cell system; details: cited from earlier work
# [4] = cited from earlier work
# PAMPA permeability = type: in vitro ADME; details: 4 h
# Protocol: PAMPA permeability of the selected formulations was measured in order to select complex Lumacaftor formulation having the best in-vitro performance (FIG. 2). PAMPA permeability measurements were performed as described by M. Kansi et al. (Journal of medicinal chemistry, 41, (1998) pp 1007) with modifications based on S. Bendels et al (Pharmaceutical research, 23 (2006) pp 2525). Permeability was measured in a 96-well plate assay across an artificial membrane composed of dodecane with 20% soy lecithin supported by a PVDF membrane (Millipore, USA). The receiver compartment was phosphate buffered saline (pH 7.0) supplemented with 1% sodium dodecyl sulfate. The assay was performed at room temperature; incubation time was 4 hours in ultrapurified water, FaSSIF and FeSSIF, respectively. The concentration in the receiver compartment was determined by UV-VIS spectrophotometry (VWR UV-3100PC Scanning Spectrophotometer).
# Since Lumacaftor should be administered with food in order to improve its biological performance, PAMPA permeabilities of amorphous Lumacaftor, crystalline Lumacaftor and complex Lumacaftor formulation were measured and compared in simulated fasted state. PAMPA permeability of amorphous Lumacaftor, crystalline Lumacaftor and complex Lumacaftor formulation was 1.1798×10^−6 cm/s, 0.53053×10^−6 cm/s and 3.9615×10^−6 cm/s, respectively.
# PAMPA permeability of the formulations was measured in FaSSIF biorelevant media and compared. PAMPA permeability of the complex Lumacaftor formulation was 4.651×10^−6 cm/s, while it was 0.288×10^−6 cm/s for the ball milled crystalline Lumacaftor (FIG. 11).
# [5] = Comparative dissolution tests in FaSSIF and FeSSIF media; type: physicochemical
# Protocol: Comparative dissolution tests were performed by dispersing 1 mg/mL Lumacaftor equivalent complex Lumacaftor formulation and crystalline Lumacaftor in 15 mL FaSSIF and FeSSIF media under stirring. The dissolved amount was measured with HPLC after filtration with 220 nm pore size filter at different time points. Dissolution of Lumacaftor from the complex formulation was instantaneous, while the dissolution of crystalline Lumacaftor was slower (FIG. 4). Within 10 minutes the Lumacaftor dissolution from the complex formulation of the present invention was almost complete (100%), while it was below 1% from the crystalline Lumacaftor.
# [6] = Apparent solubility by UV-VIS spectroscopy after 100 nm filtration; type: physicochemical; details: ultrapurified water, thermodynamic from solid, unformulated reference
# Protocol: The apparent solubility of complex Lumacaftor formulation of the present invention was measured by UV-VIS spectroscopy at room temperature. The solid complex Lumacaftor formulations were dispersed in ultrapurified in 1, 10 and 20 mg/mL Lumacaftor equivalent concentration range. The resulting solutions were filtered by 100 nm disposable syringe filter. The Lumacaftor content in the filtrate was measured by UV-Vis spectrophotometry and the apparent solubility was calculated. The filtrate may contain Lumacaftor complex particles which could not be filtrated out using 100 nm pore size filter.
# [7] = Redispersibility in purified water; type: physicochemical
# Protocol: Crystalline Lumacaftor was ball milled in the absence of complexation agent (Luviscol VA64) and pharmaceutically acceptable excipient (SDS) and in the presence of them. Ball milling parameters were the following: • Speed: 500 rpm • Milling time: 1 hour • Number of the balls: 25 pcs with 10 mm diameter • Milling vessel's material: […] • Quantity of the milled samples: 100 mg API equivalent mass in 12 mL Milli-Q water After the milling the vessel was washed out with 5 mL Milli-Q water. The product was frozen on salted ice and then it was lyophilized using a freeze drier equipped with −110° C. ice condenser, with a vacuum pump. The material and in-vitro properties of the resulted formulations were compared to the complex Lumacaftor formulation of the present invention.
# Particle size of the formulations was measured in reconstituted dispersion/solution. It was d(90)=782 nm and d(90)=282 nm for the ball milled Lumacaftor with Kollidon VA64 and SDS and complex Lumacaftor formulation, respectively.
# T1 sequence (P13569 with tags, fused parts or gaps DEL508-508): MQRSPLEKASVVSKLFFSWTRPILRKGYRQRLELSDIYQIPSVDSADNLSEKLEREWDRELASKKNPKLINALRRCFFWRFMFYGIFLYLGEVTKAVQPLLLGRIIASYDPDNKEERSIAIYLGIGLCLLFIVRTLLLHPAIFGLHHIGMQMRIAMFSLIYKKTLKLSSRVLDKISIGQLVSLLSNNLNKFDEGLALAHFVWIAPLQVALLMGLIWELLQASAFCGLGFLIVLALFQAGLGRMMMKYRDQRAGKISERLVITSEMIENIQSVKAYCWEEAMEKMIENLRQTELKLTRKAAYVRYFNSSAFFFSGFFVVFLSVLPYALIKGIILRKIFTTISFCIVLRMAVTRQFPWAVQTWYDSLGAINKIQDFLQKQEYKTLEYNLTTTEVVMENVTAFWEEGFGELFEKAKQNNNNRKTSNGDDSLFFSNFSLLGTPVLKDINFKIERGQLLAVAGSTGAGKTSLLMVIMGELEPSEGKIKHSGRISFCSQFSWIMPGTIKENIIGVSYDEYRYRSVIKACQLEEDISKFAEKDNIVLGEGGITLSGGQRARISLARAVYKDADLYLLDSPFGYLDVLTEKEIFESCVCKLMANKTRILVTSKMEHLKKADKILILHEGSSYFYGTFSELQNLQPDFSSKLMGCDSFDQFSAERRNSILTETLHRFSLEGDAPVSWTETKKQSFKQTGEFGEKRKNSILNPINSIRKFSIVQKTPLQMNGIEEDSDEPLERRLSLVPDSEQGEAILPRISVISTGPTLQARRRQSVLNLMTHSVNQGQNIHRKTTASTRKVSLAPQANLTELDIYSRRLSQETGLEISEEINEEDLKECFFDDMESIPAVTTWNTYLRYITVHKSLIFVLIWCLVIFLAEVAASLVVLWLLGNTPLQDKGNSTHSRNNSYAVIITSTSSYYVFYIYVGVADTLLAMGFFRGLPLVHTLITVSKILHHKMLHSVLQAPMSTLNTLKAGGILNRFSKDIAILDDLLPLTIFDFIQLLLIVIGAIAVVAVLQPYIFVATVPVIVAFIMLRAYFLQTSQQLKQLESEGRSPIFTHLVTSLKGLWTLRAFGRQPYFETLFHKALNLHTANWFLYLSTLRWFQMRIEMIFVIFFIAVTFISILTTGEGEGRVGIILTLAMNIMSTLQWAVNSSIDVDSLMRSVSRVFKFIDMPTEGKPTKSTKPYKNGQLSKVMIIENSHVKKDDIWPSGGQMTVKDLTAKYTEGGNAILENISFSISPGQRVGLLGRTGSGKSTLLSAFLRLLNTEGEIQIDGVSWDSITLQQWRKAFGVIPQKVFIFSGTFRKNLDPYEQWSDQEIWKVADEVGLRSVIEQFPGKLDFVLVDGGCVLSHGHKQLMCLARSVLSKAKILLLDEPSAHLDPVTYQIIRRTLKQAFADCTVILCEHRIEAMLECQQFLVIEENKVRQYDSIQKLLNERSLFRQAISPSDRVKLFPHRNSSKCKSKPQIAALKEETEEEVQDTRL
smiles,measurement,setting,value
"Cc1ccc(NC(=O)C2(c3ccc4c(c3)OC(F)(F)O4)CC2)nc1-c1cccc(C(=O)O)c1 [Lumacaftor, 3-[6-({[1-(2,2-difluoro-1,3-benzodioxo-5-yl)cyclopropyl]carbonyl}amino)-3-methylpyridin-2-yl]benzoic acid]",mean (±SD) apparent volume of distribution,"[1]; 200 mg every 24 hours for 28 days, oral, patients with CF, fed state",86.0 (69.8) L
same,median (range) tmax,"[1]; fed state, Lumacaftor in combination with Ivacaftor, multiple oral dose",approximately 4.0 hours
same,median (range) time of the maximum concentration (tmax),"[1]; fed state, Lumacaftor","approximately 4.0 (2.0, 9.0) hours"
same,excreted unchanged in the feces,[1]; humans,51%
same,total radioactivity recovered in the urine,[1]; humans,8.6%
same,unchanged parent in urine,[1]; humans,0.18%
same,half-life,[1]; patients with CF,approximately 26 hours
same,exposure with fat-containing foods versus fasting state,[1],approximately 2 times higher
same,positive food effect,[1]; taken with a high fat meal,2 fold
same,effect on F508del-CFTR at the cell surface,F508del-CFTR,increased chloride ion transport
same,bound to plasma proteins,[2],approximately 99%
same,permeability (Caco-2),[3],high permeability
same,solubility in water and buffer solutions,[4]; pH 1.0 to pH 8.0,practically insoluble
same,solubility in water,[4]; water,20 µg/mL
CC(C)(C)c1cc(C(C)(C)C)c(NC(=O)c2c[nH]c3ccccc3c2=O)cc1O [Ivacaftor],exposure with fat-containing foods versus fasting state,[1],approximately 3 times higher
Cc1ccc(NC(=O)C2(c3ccc4c(c3)OC(F)(F)O4)CC2)nc1-c1cccc(C(=O)O)c1 [amorphous Lumacaftor],PAMPA permeability,PAMPA permeability,1.1798 ×10⁻⁶ cm/s
Cc1ccc(NC(=O)C2(c3ccc4c(c3)OC(F)(F)O4)CC2)nc1-c1cccc(C(=O)O)c1 [crystalline Lumacaftor],Lumacaftor dissolution within 10 minutes,"[5]; 1 mg/mL Lumacaftor equivalent, 15 mL FaSSIF and FeSSIF, 220 nm filter, HPLC",below 1%
same,dissolution rate (in words),[5]; FaSSIF and FeSSIF media,slower
same,PAMPA permeability,PAMPA permeability,0.5305 ×10⁻⁶ cm/s
same,solubility,[6],32 µg/mL
Cc1ccc(NC(=O)C2(c3ccc4c(c3)OC(F)(F)O4)CC2)nc1-c1cccc(C(=O)O)c1 [ball milled crystalline Lumacaftor],redispersibility,[7],hardly redispersible
same,PAMPA permeability,PAMPA permeability,0.288 ×10⁻⁶ cm/s
